Experiment: Octanol-water partition coefficient, log P by reverse phase HPLC method
Assay type: physicochemical

| logP | Compound |
| --- | --- |
| 2.53 | Cc1ccc2c(c1)c1c(n2CCc2ccc(C)nc2)CCN([11CH3])C1 |
| 2.21 | CC(=O)N(Cc1ccccc1O[11CH3])c1cnccc1Oc1ccccc1 |

— ChEMBL document CHEMBL1156990, “[(11)C]Dimebon, radiosynthesis and lipophilicity of a new potential PET agent for imaging of Alzheimer's disease and Huntington's disease” (Bioorg Med Chem Lett, 2010)
